Values after ≈ are worked out from the molar mass of the structure shown. Non-standard residues stand in square brackets, D forms with d. Residues, ends and D or L forms follow the SMILES beside them. *: point of attachment. Lauroyl = CCCCCCCCCCCC(=O)*; Decanoyl = CCCCCCCCCC(=O)*; Octanoyl = CCCCCCCC(=O)*
Assays:
Assay type in all cases: cell-based
[1] = system: Propionibacterium acnes ATCC 6919; experiment: MIC, agar dilution method NCCLS M11-A6, Brucella agar, anaerobic (Table 9, superscript c); settings: ATCC 6919
Summary of the method: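 Agar dilution per NCCLS M11-A6 on Brucella agar; final inoculum 1.5×10^8 CFU/milliliter applied to plates, incubated 48-96 hours at 37° C. under anaerobic (GasPak) conditions. MIC = lowest peptide concentration with no colony growth.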

[2] = system: Candida albicans ATCC 18804; experiment: MIC in yeasts, NCCLS M27-A2 broth microdilution, RPMI 1640 (Table 9, letter e); settings: ATCC 18804
Summary of the method: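 Broth microdilution per NCCLS M27-A2 in RPMI 1640 with glutamine and phenol red, final inoculum 0.5×10^3–2.5×10^3 CFU/milliliter. Incubated 24 to 48 hours at 37° C; MIC is the lowest peptide concentration with no visible growth.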

Salmonella dublin (Lane) = experiment: MIC, NCCLS M7-A6 broth microdilution (Table 9, no superscript)
Summary of the method: (§1)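 Broth microdilution in cation-adjusted Mueller Hinton broth with log-phase inoculum at 5×10^5 to 1×10^6 CFU/mL, incubated overnight at 37° C. MIC was the lowest peptide concentration showing no visible turbidity versus the no-peptide control.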

[3] = system: Staphylococcus epidermidis ATCC 12228; experiment: as above; settings: ATCC 12228
Summary of the method: as §1

[4] = system: Escherichia coli ATCC 25922; experiment: as above; settings: ATCC 25922
Summary of the method: as §1

[5] = system: Pseudomonas aeruginosa ATCC 27853; experiment: as above; settings: ATCC 27853
Summary of the method: as §1

[6] = system: Staphylococcus aureus ATCC 29213; experiment: MIC, NCCLS M7-A6 broth microdilution, cation-adjusted Mueller Hinton broth (Table 9, no superscript); settings: ATCC 29213
Summary of the method: as §1

Row | Compound | MIC P. acnes [1] | MIC C. albicans [2] | MIC S. dublin (Salmonella dublin (Lane)) | MIC S. epidermidis [3] | MIC E. coli [4] | MIC P. aeruginosa [5] | MIC S. aureus [6]
1 | CCCCCCCCCCCC(=O)NCCCC[C@H](NC(=O)[C@H](CCCNC(=N)N)NC(=O)[C@H](CC(C)C)NC(=O)[C@H](Cc1ccccc1)NC(=O)[C@H](CC(N)=O)NC(=O)[C@H](CCCNC(=N)N)NC(=O)[C@H](C)NC(=O)[C@@H](NC(=O)[C@H](CC(=O)O)NC(=O)[C@H](CCCNC(=N)N)NC(=O)[C@H](Cc1c[nH]c2ccccc12)NC(=O)[C@H](CCCNC(=N)N)NC(=O)[C@H](CO)NC(=O)[C@@H](N)CCCNC(=N)N)C(C)C)C(N)=O [Peptide 181, H2N-RSRWRDVARNFLRK(Lauryl)-NH2] (H-RSRWRDVARNFLRK(Lauroyl)-NH2) | 64c ug/mL | 8e ug/mL | 16 µg/mL (≈ 7.84 µM) | 1 µg/mL (≈ 0.49 µM) | 4 µg/mL (≈ 1.96 µM) | 4 µg/mL (≈ 1.96 µM) | 4 µg/mL (≈ 1.96 µM)
2 | CCCCCCCCCC(=O)NCCCC[C@H](NC(=O)[C@H](CCCNC(=N)N)NC(=O)[C@H](CCSC)NC(=O)[C@H](Cc1ccccc1)NC(=O)[C@H](CC(N)=O)NC(=O)[C@H](CCCNC(=N)N)NC(=O)[C@H](C)NC(=O)[C@@H](NC(=O)[C@H](CC(=O)O)NC(=O)[C@H](CCCNC(=N)N)NC(=O)[C@H](Cc1c[nH]c2ccccc12)NC(=O)[C@H](CCCNC(=N)N)NC(=O)[C@H](CO)NC(=O)[C@@H](N)CCCNC(=N)N)C(C)C)C(N)=O [Peptide 185, H2N-RSRWRDVARNFMRK(Decanyl)-NH2] (H-RSRWRDVARNFMRK(Decanoyl)-NH2) | 32c ug/mL | 32e ug/mL | 16 µg/mL (≈ 7.88 µM) | 1 µg/mL (≈ 0.492 µM) | 8 µg/mL (≈ 3.94 µM) | 16 µg/mL (≈ 7.88 µM) | 4 µg/mL (≈ 1.97 µM)
3 | CCCCCCCCCCCC(=O)NCCCC[C@H](NC(=O)[C@H](CCCNC(=N)N)NC(=O)[C@H](CCSC)NC(=O)[C@H](Cc1ccccc1)NC(=O)[C@H](CC(N)=O)NC(=O)[C@H](CCCNC(=N)N)NC(=O)[C@H](C)NC(=O)[C@@H](NC(=O)[C@H](CC(=O)O)NC(=O)[C@H](CCCNC(=N)N)NC(=O)[C@H](Cc1c[nH]c2ccccc12)NC(=O)[C@H](CCCNC(=N)N)NC(=O)[C@H](CO)NC(=O)[C@@H](N)CCCNC(=N)N)C(C)C)C(N)=O [Peptide 186, H2N-RSRWRDVARNFMRK(Lauryl)-NH2] (H-RSRWRDVARNFMRK(Lauroyl)-NH2) | 16c ug/mL | 16e ug/mL | 16 µg/mL (≈ 7.77 µM) | 1 µg/mL (≈ 0.486 µM) | 4 µg/mL (≈ 1.94 µM) | 4 µg/mL (≈ 1.94 µM) | 4 µg/mL (≈ 1.94 µM)
4 | CCCCCCCC(=O)NCCCC[C@@H](NC(=O)[C@@H](CCCNC(=N)N)NC(=O)[C@@H](CC(C)C)NC(=O)[C@@H](Cc1ccccc1)NC(=O)[C@@H](CC(N)=O)NC(=O)[C@@H](CCCNC(=N)N)NC(=O)[C@@H](C)NC(=O)[C@H](NC(=O)[C@@H](CC(=O)O)NC(=O)[C@@H](CCCNC(=N)N)NC(=O)[C@@H](Cc1c[nH]c2ccccc12)NC(=O)[C@@H](CCCNC(=N)N)NC(=O)[C@@H](CO)NC(=O)[C@H](N)CCCNC(=N)N)C(C)C)C(N)=O [Peptide 193, H2N-rsrwrdvarnflrk(Octanyl)-NH2] (H-[dR][dS][dR][dW][dR][dD][dV][dA][dR][dN][dF][dL][dR][dK](Octanoyl)-NH2) | 8c ug/mL | 32e ug/mL | 16 µg/mL (≈ 8.06 µM) | 2 µg/mL (≈ 1.01 µM) | 8 µg/mL (≈ 4.03 µM) | 16 µg/mL (≈ 8.06 µM) | 16 µg/mL (≈ 8.06 µM)
5 | CCCCCCCCCC(=O)NCCCC[C@@H](NC(=O)[C@@H](CCCNC(=N)N)NC(=O)[C@@H](CC(C)C)NC(=O)[C@@H](Cc1ccccc1)NC(=O)[C@@H](CC(N)=O)NC(=O)[C@@H](CCCNC(=N)N)NC(=O)[C@@H](C)NC(=O)[C@H](NC(=O)[C@@H](CC(=O)O)NC(=O)[C@@H](CCCNC(=N)N)NC(=O)[C@@H](Cc1c[nH]c2ccccc12)NC(=O)[C@@H](CCCNC(=N)N)NC(=O)[C@@H](CO)NC(=O)[C@H](N)CCCNC(=N)N)C(C)C)C(N)=O [Peptide 194, H2N-rsrwrdvarnflrk(Decanyl)-NH2] (H-[dR][dS][dR][dW][dR][dD][dV][dA][dR][dN][dF][dL][dR][dK](Decanoyl)-NH2) | 4c ug/mL | 16e ug/mL | 4 µg/mL (≈ 1.99 µM) | 1 µg/mL (≈ 0.497 µM) | 2 µg/mL (≈ 0.993 µM) | 2 µg/mL (≈ 0.993 µM) | 2 µg/mL (≈ 0.993 µM)
6 | CCCCCCCCCCCC(=O)NCCCC[C@@H](NC(=O)[C@@H](CCCNC(=N)N)NC(=O)[C@@H](CC(C)C)NC(=O)[C@@H](Cc1ccccc1)NC(=O)[C@@H](CC(N)=O)NC(=O)[C@@H](CCCNC(=N)N)NC(=O)[C@@H](C)NC(=O)[C@H](NC(=O)[C@@H](CC(=O)O)NC(=O)[C@@H](CCCNC(=N)N)NC(=O)[C@@H](Cc1c[nH]c2ccccc12)NC(=O)[C@@H](CCCNC(=N)N)NC(=O)[C@@H](CO)NC(=O)[C@H](N)CCCNC(=N)N)C(C)C)C(N)=O [Peptide 195, H2N-rsrwrdvarnflrk(Lauryl)-NH2] (H-[dR][dS][dR][dW][dR][dD][dV][dA][dR][dN][dF][dL][dR][dK](Lauroyl)-NH2) | 8c ug/mL | 8e ug/mL | 4 µg/mL (≈ 1.96 µM) | 1 µg/mL (≈ 0.49 µM) | 4 µg/mL (≈ 1.96 µM) | 4 µg/mL (≈ 1.96 µM) | 2 µg/mL (≈ 0.98 µM)
7 | CCCCCCCC(=O)NCCCC[C@@H](NC(=O)[C@@H](CCCNC(=N)N)NC(=O)[C@@H](CCSC)NC(=O)[C@@H](Cc1ccccc1)NC(=O)[C@@H](CC(N)=O)NC(=O)[C@@H](CCCNC(=N)N)NC(=O)[C@@H](C)NC(=O)[C@H](NC(=O)[C@@H](CC(=O)O)NC(=O)[C@@H](CCCNC(=N)N)NC(=O)[C@@H](Cc1c[nH]c2ccccc12)NC(=O)[C@@H](CCCNC(=N)N)NC(=O)[C@@H](CO)NC(=O)[C@H](N)CCCNC(=N)N)C(C)C)C(N)=O [Peptide 198, H2N-rsrwrdvarnfmrk(Octanyl)-NH2] (H-[dR][dS][dR][dW][dR][dD][dV][dA][dR][dN][dF][dM][dR][dK](Octanoyl)-NH2) | 16c ug/mL | 64e ug/mL | 32 µg/mL (≈ 16 µM) | 4 µg/mL (≈ 2 µM) | 16 µg/mL (≈ 7.99 µM) | 64 µg/mL (≈ 31.9 µM) | 16 µg/mL (≈ 7.99 µM)
8 | CCCCCCCCCC(=O)NCCCC[C@@H](NC(=O)[C@@H](CCCNC(=N)N)NC(=O)[C@@H](CCSC)NC(=O)[C@@H](Cc1ccccc1)NC(=O)[C@@H](CC(N)=O)NC(=O)[C@@H](CCCNC(=N)N)NC(=O)[C@@H](C)NC(=O)[C@H](NC(=O)[C@@H](CC(=O)O)NC(=O)[C@@H](CCCNC(=N)N)NC(=O)[C@@H](Cc1c[nH]c2ccccc12)NC(=O)[C@@H](CCCNC(=N)N)NC(=O)[C@@H](CO)NC(=O)[C@H](N)CCCNC(=N)N)C(C)C)C(N)=O [Peptide 199, H2N-rsrwrdvarnfmrk(Decanyl)-NH2] (H-[dR][dS][dR][dW][dR][dD][dV][dA][dR][dN][dF][dM][dR][dK](Decanoyl)-NH2) | 8c ug/mL | 32e ug/mL | 8 µg/mL (≈ 3.94 µM) | 1 µg/mL (≈ 0.492 µM) | 4 µg/mL (≈ 1.97 µM) | 4 µg/mL (≈ 1.97 µM) | 2 µg/mL (≈ 0.985 µM)
9 | CCCCCCCCCCCC(=O)NCCCC[C@@H](NC(=O)[C@@H](CCCNC(=N)N)NC(=O)[C@@H](CCSC)NC(=O)[C@@H](Cc1ccccc1)NC(=O)[C@@H](CC(N)=O)NC(=O)[C@@H](CCCNC(=N)N)NC(=O)[C@@H](C)NC(=O)[C@H](NC(=O)[C@@H](CC(=O)O)NC(=O)[C@@H](CCCNC(=N)N)NC(=O)[C@@H](Cc1c[nH]c2ccccc12)NC(=O)[C@@H](CCCNC(=N)N)NC(=O)[C@@H](CO)NC(=O)[C@H](N)CCCNC(=N)N)C(C)C)C(N)=O [Peptide 200, H2N-rsrwrdvarnfmrk(Lauryl)-NH2] (H-[dR][dS][dR][dW][dR][dD][dV][dA][dR][dN][dF][dM][dR][dK](Lauroyl)-NH2) | 8c ug/mL | 8e ug/mL | 8 µg/mL (≈ 3.88 µM) | 1 µg/mL (≈ 0.486 µM) | 4 µg/mL (≈ 1.94 µM) | 4 µg/mL (≈ 1.94 µM) | 2 µg/mL (≈ 0.971 µM)

Reference: patent US20050282755A1, “Compositions having antimicrobial activity and uses thereof” (priority 2004, published 2005)
